Drawing on PubChem BioAssay AID1259407 (Chemical Carcinogenesis Research Information System (CCRIS), 2018), this text covers mutagenic call for five molecules.

The source made the active and inactive calls. How the calls were made is not given here.

The data set has as its system CCRIS mutagenicity, Ames/micronucleus/aberration tests. Briefly: CCRIS mutagenicity studies.
[1] abbreviates: Test System: AMES SALMONELLA TYPHIMURIUM, Strain/Indicator: TA98, Metabolic Activation: NONE, Method: STANDARD PLATE.
The mark [2] stands for this setting: Test System: AMES SALMONELLA TYPHIMURIUM, Strain/Indicator: TA102, Metabolic Activation: NONE, Method: STANDARD PLATE.

As for `CC(=O)Nc1ccc2ccc3cccc4ccc1c2c34`, the mutagenic call is, setting by setting: (Test System: AMES SALMONELLA TYPHIMURIUM, Strain/Indicator: TA98(1,8-DNP6), Metabolic Activation: NONE, Method: STANDARD PLATE) “inactive; negative”; (Test System: AMES SALMONELLA TYPHIMURIUM, Strain/Indicator: TA98(1,8-DNP6), Metabolic Activation: RAT, LIVER, S-9, AROCLOR 1254, Method: STANDARD PLATE) “inactive; negative”; (Test System: AMES SALMONELLA TYPHIMURIUM, Strain/Indicator: TA98(NR), Metabolic Activation: NONE, Method: STANDARD PLATE) “inactive; negative”; (Test System: AMES SALMONELLA TYPHIMURIUM, Strain/Indicator: TA98(NR), Metabolic Activation: RAT, LIVER, S-9, AROCLOR 1254, Method: STANDARD PLATE) “active; positive”; under setting [1], “inactive; negative”; (Test System: AMES SALMONELLA TYPHIMURIUM, Strain/Indicator: TA98, Metabolic Activation: RAT, LIVER, S-9, AROCLOR 1254, Method: STANDARD PLATE) “active; positive”.

As for `NNc1ccn([C@@H]2O[C@H](CO)[C@@H](O)[C@H]2O)c(=O)n1`, the mutagenic call (Test System: CHINESE HAMSTER V-79, Strain/Indicator: V-79/6-THIOGUANINE, Metabolic Activation: NONE, Method: REPLATING) is “active; positive”.

For `O=C(O)c1cccc(Cl)c1`, the mutagenic call is “inactive; negative” (Test System: AMES SALMONELLA TYPHIMURIUM, Strain/Indicator: TA97, Metabolic Activation: HAMSTER, LIVER, S-9, AROCLOR 1254 (10%), Method: PREINCUBATION); “inactive; negative” (Test System: AMES SALMONELLA TYPHIMURIUM, Strain/Indicator: TA97, Metabolic Activation: HAMSTER, LIVER, S-9, AROCLOR 1254 (30%), Method: PREINCUBATION); “inactive; negative” (Test System: AMES SALMONELLA TYPHIMURIUM, Strain/Indicator: TA97, Metabolic Activation: NONE, Method: PREINCUBATION); “inactive; negative” (Test System: AMES SALMONELLA TYPHIMURIUM, Strain/Indicator: TA97, Metabolic Activation: RAT, LIVER, S-9, AROCLOR 1254 (10%), Method: PREINCUBATION); “inactive; negative” (Test System: AMES SALMONELLA TYPHIMURIUM, Strain/Indicator: TA97, Metabolic Activation: RAT, LIVER, S-9, AROCLOR 1254 (30%), Method: PREINCUBATION); “inactive; negative” (Test System: AMES SALMONELLA TYPHIMURIUM, Strain/Indicator: TA98, Metabolic Activation: HAMSTER, LIVER, S-9, AROCLOR 1254 (10%), Method: PREINCUBATION). In addition, the mutagenic call by setting is: (Test System: AMES SALMONELLA TYPHIMURIUM, Strain/Indicator: TA98, Metabolic Activation: HAMSTER, LIVER, S-9, AROCLOR 1254 (30%), Method: PREINCUBATION) “inactive; negative”; (Test System: AMES SALMONELLA TYPHIMURIUM, Strain/Indicator: TA98, Metabolic Activation: NONE, Method: PREINCUBATION) “inactive; negative”; (Test System: AMES SALMONELLA TYPHIMURIUM, Strain/Indicator: TA98, Metabolic Activation: RAT LIVER S-9, PCB, Method: PREINCUBATION) “inactive; negative”; (Test System: AMES SALMONELLA TYPHIMURIUM, Strain/Indicator: TA98, Metabolic Activation: RAT, LIVER, S-9, AROCLOR 1254 (10%), Method: PREINCUBATION) “inactive; negative”; (Test System: AMES SALMONELLA TYPHIMURIUM, Strain/Indicator: TA98, Metabolic Activation: RAT, LIVER, S-9, AROCLOR 1254 (30%), Method: PREINCUBATION) “inactive; negative”; (Test System: AMES SALMONELLA TYPHIMURIUM, Strain/Indicator: TA100, Metabolic Activation: HAMSTER, LIVER, S-9, AROCLOR 1254 (10%), Method: PREINCUBATION) “inactive; negative”. Also, the mutagenic call was “inactive; negative” (Test System: AMES SALMONELLA TYPHIMURIUM, Strain/Indicator: TA100, Metabolic Activation: HAMSTER, LIVER, S-9, AROCLOR 1254 (30%), Method: PREINCUBATION); “inactive; negative” (Test System: AMES SALMONELLA TYPHIMURIUM, Strain/Indicator: TA100, Metabolic Activation: NONE, Method: PREINCUBATION); “inactive; negative” (Test System: AMES SALMONELLA TYPHIMURIUM, Strain/Indicator: TA100, Metabolic Activation: RAT LIVER S-9, PCB, Method: PREINCUBATION); “inactive; negative” (Test System: AMES SALMONELLA TYPHIMURIUM, Strain/Indicator: TA100, Metabolic Activation: RAT, LIVER, S-9, AROCLOR 1254 (10%), Method: PREINCUBATION); “inactive; negative” (Test System: AMES SALMONELLA TYPHIMURIUM, Strain/Indicator: TA100, Metabolic Activation: RAT, LIVER, S-9, AROCLOR 1254 (30%), Method: PREINCUBATION); “inactive; negative” (Test System: AMES SALMONELLA TYPHIMURIUM, Strain/Indicator: TA104, Metabolic Activation: NONE, Method: PREINCUBATION). The mutagenic call was “inactive; negative” (Test System: AMES SALMONELLA TYPHIMURIUM, Strain/Indicator: TA104, Metabolic Activation: RAT LIVER S-9, PCB, Method: PREINCUBATION); “inactive; negative” (Test System: AMES SALMONELLA TYPHIMURIUM, Strain/Indicator: TA1535, Metabolic Activation: HAMSTER, LIVER, S-9, AROCLOR 1254 (10%), Method: PREINCUBATION); “inactive; negative” (Test System: AMES SALMONELLA TYPHIMURIUM, Strain/Indicator: TA1535, Metabolic Activation: HAMSTER, LIVER, S-9, AROCLOR 1254 (30%), Method: PREINCUBATION); “inactive; negative” (Test System: AMES SALMONELLA TYPHIMURIUM, Strain/Indicator: TA1535, Metabolic Activation: NONE, Method: PREINCUBATION); “inactive; negative” (Test System: AMES SALMONELLA TYPHIMURIUM, Strain/Indicator: TA1535, Metabolic Activation: RAT, LIVER, S-9, AROCLOR 1254 (10%), Method: PREINCUBATION); “inactive; negative” (Test System: AMES SALMONELLA TYPHIMURIUM, Strain/Indicator: TA1535, Metabolic Activation: RAT, LIVER, S-9, AROCLOR 1254 (30%), Method: PREINCUBATION). Besides, the mutagenic call is, setting by setting: (Test System: AMES SALMONELLA TYPHIMURIUM, Strain/Indicator: TA1537, Metabolic Activation: HAMSTER, LIVER, S-9, AROCLOR 1254 (30%), Method: PREINCUBATION) “inactive; negative”; (Test System: AMES SALMONELLA TYPHIMURIUM, Strain/Indicator: TA1537, Metabolic Activation: NONE, Method: PREINCUBATION) “inactive; negative”; (Test System: AMES SALMONELLA TYPHIMURIUM, Strain/Indicator: TA1537, Metabolic Activation: RAT, LIVER, S-9, AROCLOR 1254 (30%), Method: PREINCUBATION) “inactive; negative”; (Test System: E.COLI, Strain/Indicator: WP2 UVRA, Metabolic Activation: NONE, Method: PREINCUBATION) “inactive; negative”; (Test System: E.COLI, Strain/Indicator: WP2 UVRA, Metabolic Activation: RAT LIVER S-9, PCB, Method: PREINCUBATION) “inactive; negative”.

Turning to `CC(C)COC(=O)CCCCC(=O)OCC(C)C`, the mutagenic call is “inactive; negative” (Test System: AMES SALMONELLA TYPHIMURIUM, Strain/Indicator: TA97, Metabolic Activation: NONE, Method: STANDARD PLATE); “inactive; negative” (Test System: AMES SALMONELLA TYPHIMURIUM, Strain/Indicator: TA97, Metabolic Activation: S-9, Method: STANDARD PLATE); “inactive; negative” under setting [1]; “inactive; negative” (Test System: AMES SALMONELLA TYPHIMURIUM, Strain/Indicator: TA98, Metabolic Activation: S-9, Method: STANDARD PLATE); “inactive; negative” (Test System: AMES SALMONELLA TYPHIMURIUM, Strain/Indicator: TA100, Metabolic Activation: NONE, Method: STANDARD PLATE); “inactive; negative” (Test System: AMES SALMONELLA TYPHIMURIUM, Strain/Indicator: TA100, Metabolic Activation: S-9, Method: STANDARD PLATE). Besides, the mutagenic call under setting [2] was “inactive; negative”; the mutagenic call (Test System: AMES SALMONELLA TYPHIMURIUM, Strain/Indicator: TA102, Metabolic Activation: S-9, Method: STANDARD PLATE) was “inactive; negative”; the mutagenic call (Test System: E.COLI, Strain/Indicator: WP2 (PKM101), Metabolic Activation: NONE, Method: STANDARD PLATE) is “inactive; negative”; the mutagenic call (Test System: E.COLI, Strain/Indicator: WP2 (PKM101), Metabolic Activation: S-9, Method: STANDARD PLATE) is “inactive; negative”.

For the molecule `CCOC(=O)CCl`, the mutagenic call runs as follows: under setting [2], “inactive; negative”; (Test System: AMES SALMONELLA TYPHIMURIUM, Strain/Indicator: TA2638, Metabolic Activation: NONE, Method: STANDARD PLATE) “inactive; negative”; (Test System: E. COLI, Strain/Indicator: WP2 (PKM101), Metabolic Activation: NONE, Method: STANDARD PLATE) “inactive; negative”; (Test System: E. COLI, Strain/Indicator: WP2 UVRA (PKM101), Metabolic Activation: NONE, Method: STANDARD PLATE) “inactive; negative”.
